Like-named read-outs stand apart in the source and are kept apart here. *1 amine or outer side, *2 acyl side, *3 side chain or, on linkers, in order; H or OH if unused. Where a SMILES comes first, the peptide text is derived from it. Bridges are numbered along the chain shown (N, C = ends). [ ]: non-standard residue; d: D form. X12 = O=C([C@H](CN1Cc2ccccc2B2O[C@@H]([C@H](O)[C@@H](C(O)CO)O2)[C@H](O)C1)N[*:1])[*:2]; X13 = O=C([C@H](CCNC[C@@H](O)[C@@H](O)[C@H](O)[C@H](O)C(O)CO)N[*:1])[*:2]; Trp(1-CH2CO) = O=C([C@H](Cc1cn(CC(=O)[*:3])c2ccccc12)N[*:1])[*:2]; X7 = O=C([C@H](CNCc1cc(B(O)O[*:3])ccc1OCc1ccccc1)N[*:1])[*:2]; X22 = O=C([C@H](CNCc1c(B(O)O[*:3])ccc(Cl)c1F)N[*:1])[*:2]; Trp(1-CH2COOH) = N[C@@H](Cc1cn(CC(=O)O)c2ccccc12)C(=O)O; X8 = O=C([C@H](CNCc1ccc(B(O)O[*:3])cc1Cl)N[*:1])[*:2]; X32 = O=C([C@H](CNCc1ccc(B(O)O[*:3])cc1)N[*:1])[*:2]; X6 = O=C([C@H](CNCc1cccc(B(O)O[*:3])c1)N[*:1])[*:2]; X1 = Cc1cc(CNC[C@H](N[*:1])C(=O)[*:2])cc(C)c1B(O)O; Hyp = O=C(O)[C@@H]1C[C@@H](O)CN1; NMeNle = CCCC[C@H](NC)C(=O)O; NMeA = CN[C@@H](C)C(=O)O; Dab = NCC[C@H](N)C(=O)O
Target: PD-1/PD-L1 (Homo sapiens (Human), UniProt Q9NZQ7)
Sequence (Q9NZQ7 18-239): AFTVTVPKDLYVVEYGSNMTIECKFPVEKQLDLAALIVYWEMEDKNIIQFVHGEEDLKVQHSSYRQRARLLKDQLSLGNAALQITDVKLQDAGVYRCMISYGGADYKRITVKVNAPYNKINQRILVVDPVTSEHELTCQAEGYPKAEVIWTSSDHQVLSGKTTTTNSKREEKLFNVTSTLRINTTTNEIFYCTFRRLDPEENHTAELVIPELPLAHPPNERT
Test: PD-1/PD-L1 Homogenous Time-Resolved Fluorescence (HTRF) binding assay
Description: Methods for Testing the Ability of Macrocyclic Peptides to Compete for the Binding of PD-1 to PD-L1 Using Homogenous Time-Resolved Fluorescence (HTRF) Binding Assays
The ability of the compounds of formula (I) to bind to PD-L1 was investigated using a PD-1/PD-L1 Homogenous Time-Resolved Fluorescence (HTRF) binding assay.
Homogenous Time-Resolved Fluorescence (HTRF) Binding Assay
The interaction of PD-1 and PD-L1 can be assessed using soluble, purified preparations of the extracellular domains of the two proteins. The PD-1 and PD-L1 protein extracellular domains were expressed as fusion proteins with detection tags, for PD-1, the tag was the Fc portion of Immunoglobulin (PD-1-Ig) and for PD-L1 it was the 6 histidine motif (PD-L1-His). All binding studies were performed in an HTRF assay buffer consisting of dPBS supplemented with 0.1% […] bovine serum albumin and 0.05% (v/v) Tween-20. For the h/PD-L1-His binding assay, inhibitors were pre-incubated with PD-L1-His (10 nM final) for 15 m in 4 μl of assay buffer, followed by addition of PD-1-Ig (20 nM final) in 1 μl of assay buffer and further incubation for 15 m. HTRF detection was achieved using europium cryptate-labeled anti-Ig (1 nM final) and allophycocyanin (APC) labeled anti-His (20 nM final). Antibodies were diluted in HTRF detection buffer and 5 μl was dispensed on top of the binding reaction. The reaction mixture was allowed to equilibrate for 30 minutes and the resulting signal (665 nm/620 nm ratio) was obtained using an EnVision fluorometer. Additional binding assays were established between the human proteins PD-1-Ig/PD-L2-His (20 & 5 nM, respectively) and CD80-His/PD-L1-Ig (100 & 10 nM, respectively).
Recombinant Proteins: Human PD-1 (25-167) with a C-terminal human Fc domain of immunoglobulin G (Ig) epitope tag [hPD-1 (25-167)-3S-IG] and human PD-L1 (18-239) with a C-terminal His epitope tag [hPD-L1(18-239)-TVMV-His] were expressed in HEK293T cells and purified sequentially by ProteinA affinity chromatography and size exclusion chromatography. Human PD-L2-His and CD80-His was obtained through commercial sources.
Table 1 lists the IC50 values for representative examples of this disclosure measured in the PD-1/PD-L1 Homogenous Time-Resolved Fluorescence (HTRF) binding assay.

[1] = PD-L1-His 10 nM, PD-1-Ig 20 nM, read-out: HTRF IC50

Row | SMILES | IC50 [nM] | IC50 [1] [nM]
1 | CCCC[C@H]1C(=O)N(C)[C@@H](CCCC)C(=O)N[C@@H](CC(C)C)C(=O)N[C@H](C(=O)NCC(N)=O)CSCC(=O)N[C@@H](Cc2ccc(O)cc2)C(=O)N(C)[C@@H](C)C(=O)N[C@@H](CC(N)=O)C(=O)N2CCC[C@H]2C(=O)N[C@@H](CN2Cc3ccccc3B3O[C@@H]([C@H](O)[C@@H](C(O)CO)O3)[C@H](O)C2)C(=O)N[C@@H](CC(C)C)C(=O)N2C[C@H](O)C[C@H]2C(=O)N[C@@H](Cc2c[nH]c3ccccc23)C(=O)N[C@@H](CCNC[C@@H](O)[C@@H](O)[C@H](O)[C@H](O)C(O)CO)C(=O)N[C@@H](Cc2cn(CC(=O)O)c3ccccc23)C(=O)N1C (stereo partly shown) [Example 1038] ({CH2CO}-Y[NMeA]NP[X12]L[Hyp]W[X13][Trp(1-CH2COOH)][NMeNle][NMeNle]LCG-NH2; thioether N-14) | 6.8 | 
2 | CCCC[C@H]1C(=O)N(C)[C@@H](CCCC)C(=O)N[C@@H](CC(C)C)C(=O)N[C@H](C(=O)NCC(N)=O)CSCC(=O)N[C@H]2Cc3ccc(cc3)OB(O)c3cc(F)c(F)cc3CNCC[C@@H]3NC(=O)[C@H](Cc4c[nH]c5ccccc45)NC(=O)[C@@H]4C[C@@H](O)CN4C(=O)[C@H](CC(C)C)NC(=O)[C@H](CNCc4cc(F)c(F)cc4B(O)OC(=O)Cn4cc(c5ccccc54)C[C@H](NC3=O)C(=O)N1C)NC(=O)[C@@H]1CCCN1C(=O)[C@H](CC(N)=O)NC(=O)[C@H](C)N(C)C2=O [Example 1031] |  | 10
3 | CCCC[C@H]1C(=O)N(C)[C@@H](CCCC)C(=O)N[C@@H](CC(C)C)C(=O)N[C@H](C(=O)NCC(N)=O)CSCC(=O)N[C@@H](Cc2ccc(O)cc2)C(=O)N(C)[C@@H](C)C(=O)N[C@@H](CC(N)=O)C(=O)N2CCC[C@H]2C(=O)N[C@H]2CNCc3ccc(cc3)B(O)OC(=O)Cn3cc(c4ccccc43)C[C@H](NC(=O)[C@H](CCN)NC(=O)[C@H](Cc3c[nH]c4ccccc34)NC(=O)[C@@H]3C[C@@H](O)CN3C(=O)[C@H](CC(C)C)NC2=O)C(=O)N1C [Example 1002] ({CH2CO}-Y[NMeA]NP[X32]L[Hyp]W[Dab][Trp(1-CH2CO)][NMeNle][NMeNle]LCG-NH2; ester 5-10; thioether N-14) |  | 3.5
4 | CCCC[C@H]1C(=O)N(C)[C@@H](CCCC)C(=O)N[C@@H](CC(C)C)C(=O)N[C@H](C(=O)NCC(N)=O)CSCC(=O)N[C@@H](Cc2ccc(O)cc2)C(=O)N(C)[C@@H](C)C(=O)N[C@@H](CC(N)=O)C(=O)N2CCC[C@H]2C(=O)N[C@H]2CNCc3cc(ccc3OCc3ccccc3)B(O)OC(=O)Cn3cc(c4ccccc43)C[C@H](NC(=O)[C@H](CCN)NC(=O)[C@H](Cc3c[nH]c4ccccc34)NC(=O)[C@@H]3C[C@@H](O)CN3C(=O)[C@H](CC(C)C)NC2=O)C(=O)N1C [Example 1019] ({CH2CO}-Y[NMeA]NP[X7]L[Hyp]W[Dab][Trp(1-CH2CO)][NMeNle][NMeNle]LCG-NH2; ester 5-10; thioether N-14) |  | 4.8
5 | CCCC[C@H]1C(=O)N(C)[C@@H](CCCC)C(=O)N[C@@H](CC(C)C)C(=O)N[C@H](C(=O)NCC(N)=O)CSCC(=O)N[C@H]2Cc3ccc(cc3)OB(O)c3ccc(cc3F)CNCC[C@@H]3NC(=O)[C@H](Cc4c[nH]c5ccccc45)NC(=O)[C@@H]4C[C@@H](O)CN4C(=O)[C@H](CC(C)C)NC(=O)[C@H](CNCc4ccc(c(F)c4)B(O)OC(=O)Cn4cc(c5ccccc54)C[C@H](NC3=O)C(=O)N1C)NC(=O)[C@@H]1CCCN1C(=O)[C@H](CC(N)=O)NC(=O)[C@H](C)N(C)C2=O [Example 1026] |  | 4
6 | CCCC[C@H]1C(=O)N(C)[C@@H](CCCC)C(=O)N[C@@H](CC(C)C)C(=O)N[C@H](C(=O)NCC(N)=O)CSCC(=O)N[C@@H](Cc2ccc(O)cc2)C(=O)N(C)[C@@H](C)C(=O)N[C@@H](CC(N)=O)C(=O)N2CCC[C@H]2C(=O)N[C@@H](CNCc2cc(C)c(B(O)O)c(C)c2)C(=O)N[C@@H](CC(C)C)C(=O)N2C[C@H](O)C[C@H]2C(=O)N[C@@H](Cc2c[nH]c3ccccc23)C(=O)N[C@@H](CCN)C(=O)N[C@@H](Cc2cn(CC(=O)O)c3ccccc23)C(=O)N1C [Example 1027] ({CH2CO}-Y[NMeA]NP[X1]L[Hyp]W[Dab][Trp(1-CH2COOH)][NMeNle][NMeNle]LCG-NH2; thioether N-14) |  | 3.8
7 | CCCC[C@H]1C(=O)N(C)[C@@H](CCCC)C(=O)N[C@@H](CC(C)C)C(=O)N[C@H](C(=O)NCC(N)=O)CSCC(=O)N[C@@H](Cc2ccc(O)cc2)C(=O)N(C)[C@@H](C)C(=O)N[C@@H](CC(N)=O)C(=O)N2CCC[C@H]2C(=O)N[C@H]2CNCc3ccc(cc3)B3OB(O3)c3ccc(cc3)CNCC[C@H](NC(=O)[C@H](Cc3c[nH]c4ccccc34)NC(=O)[C@@H]3C[C@@H](O)CN3C(=O)[C@H](CC(C)C)NC2=O)C(=O)N[C@@H](Cc2cn(CC(=O)O)c3ccccc23)C(=O)N1C [Example 1004] |  | 6.3
8 | CCCC[C@H]1C(=O)N(C)[C@@H](CCCC)C(=O)N[C@@H](CC(C)C)C(=O)N[C@H](C(=O)NCC(N)=O)CSCC(=O)N[C@@H](Cc2ccc(O)cc2)C(=O)N(C)[C@@H](C)C(=O)N[C@@H](CC(N)=O)C(=O)N2CCC[C@H]2C(=O)N[C@H]2CNCc3cccc(c3)B(O)OC(=O)Cn3cc(c4ccccc43)C[C@H](NC(=O)[C@H](CCN)NC(=O)[C@H](Cc3c[nH]c4ccccc34)NC(=O)[C@@H]3C[C@@H](O)CN3C(=O)[C@H](CC(C)C)NC2=O)C(=O)N1C [Example 1001] ({CH2CO}-Y[NMeA]NP[X6]L[Hyp]W[Dab][Trp(1-CH2CO)][NMeNle][NMeNle]LCG-NH2; ester 5-10; thioether N-14) |  | 3.8
9 | CCCC[C@H]1C(=O)N(C)[C@@H](CCCC)C(=O)N[C@@H](CC(C)C)C(=O)N[C@H](C(=O)NCC(N)=O)CSCC(=O)N[C@@H](Cc2ccc(O)cc2)C(=O)N(C)[C@@H](C)C(=O)N[C@@H](CC(N)=O)C(=O)N2CCC[C@H]2C(=O)N[C@H]2CNCc3ccc(cc3Cl)B(O)OC(=O)Cn3cc(c4ccccc43)C[C@H](NC(=O)[C@H](CCN)NC(=O)[C@H](Cc3c[nH]c4ccccc34)NC(=O)[C@@H]3C[C@@H](O)CN3C(=O)[C@H](CC(C)C)NC2=O)C(=O)N1C [Example 1020] ({CH2CO}-Y[NMeA]NP[X8]L[Hyp]W[Dab][Trp(1-CH2CO)][NMeNle][NMeNle]LCG-NH2; ester 5-10; thioether N-14) |  | 14
10 | CCCC[C@H]1C(=O)N(C)[C@@H](CCCC)C(=O)N[C@@H](CC(C)C)C(=O)N[C@H](C(=O)NCC(N)=O)CSCC(=O)N[C@@H](Cc2ccc(O)cc2)C(=O)N(C)[C@@H](C)C(=O)N[C@@H](CC(N)=O)C(=O)N2CCC[C@H]2C(=O)N[C@H]2CNCc3c(ccc(Cl)c3F)B(O)OC(=O)Cn3cc(c4ccccc43)C[C@H](NC(=O)[C@H](CCN)NC(=O)[C@H](Cc3c[nH]c4ccccc34)NC(=O)[C@@H]3C[C@@H](O)CN3C(=O)[C@H](CC(C)C)NC2=O)C(=O)N1C [Example 1017] ({CH2CO}-Y[NMeA]NP[X22]L[Hyp]W[Dab][Trp(1-CH2CO)][NMeNle][NMeNle]LCG-NH2; ester 5-10; thioether N-14) |  | 7.1

Source: patent publication US20230365627A1, “MACROCYCLIC PEPTIDE BORONATE IMMUNOMODULATORS” (Bristol-Myers Squibb Company, priority 2020, published 2023)
